For the test, the system named is PMA-induced release of endogenous HB-EGF from human U-937 cells. Nature of the test: ELISA-based HB-EGF release assay, PMA-induced, U-937 cells. It counts as cell-based. The settings on record: PMA 25 ng/ml, 6 hours, murine (m) and chimeric (ch) antibodies and IgG at 3 μg/ml, Batimastat at 10 μM. How it is done: In brief, on day 1, Nunc black MaxiSorp® 96-well plates (Thermo Fisher Scientific, USA) were coated for 7 hours with 100 μl per well of rat anti-human HB-EGF capture antibody (provided as part of the DuoSet ELISA kit) at 2 μg/ml TBS at room temperature. Capture antibody solution was removed and MaxiSorp® plates were blocked with 300 μl per well of TBS, 1% BSA at room temperature for 3 hours. […]
Following another round of 4 times washing with 350 μl TBS-T (Carl Roth, Germany) per well on a 96-head plate washer (Tecan Group, Switzerland) and careful removal of all buffer traces after the fourth cycle, 100 μl AttoPhos substrate solution (Promega, USA) per well was added for incubation in the dark at room temperature for 1 hour. Using an infinite M1000 (Tecan Group, Switzerland) microplate reader, the fluorescence of each well was collected at an excitation wavelength of 435 nm and an emission wavelength of 555 nm. […]
Background: In an ELISA, binding on a coated surface is turned into a signal by an enzyme label.

A word on the inhibition: it is the drop in the measured response relative to a control, in per cent. The low end stands for a response near the control, the high end for a response far below the control. In turn, `CNC(=O)[C@H](Cc1ccccc1)NC(=O)[C@H](CC(C)C)[C@H](CSc1cccs1)C(=O)NO` [Batimastat] had an inhibition at 10 µM of 100%.

The values are drawn from US20240287172A1, “PROTEIN BINDERS TO IRHOM2 EPITOPES” (SCIRHOM GMBH, priority 2019, published 2024).
